Patent publication US20170224775A1, “Lv PEPTIDE, ANTI-Lv ANTIBODY AND METHODS THEREOF” (The Texas A&M University System, priority 2016, published 2017)

Legend:
Format in all cases: cell-based, chicken
L-VGCC = test: Whole-cell patch-clamp recordings of L-VGCC currents in cultured embryonic cardiomyocytes
Protocol: (§1) Fertilized eggs (Gallus gallus, Single Comb White Leghorns) were obtained from the Poultry Science Department, Texas A&M University (College Station, Tex., USA). All chicken embryos were maintained at 39° C.±0.5° C. Chicken hearts were harvested at embryonic day 12 (E12) and ventricular cardiomyocytes were dissociated and cultured on poly-D-lysine/collagen double-coated dishes (for biochemical and molecular biological assays) or coverslips (for electrophysiological recordings) as described previously. All cultures were maintained at 39° C.±0.5° C. with 5% CO2. Cells were cultured for 2-3 days and subjected to treatments with vehicle, peptide Lv, or pharmaceutical blockers prior to Western blotting or electrophysiological recordings.
Ventricular cardiomyocytes were cultured for two days. Whole-cell patch-clamp recordings of L-VGCC currents were carried out from spontaneously pulsing cardiomyocytes. The external solution was (in mM): 145 TEACl, 9 BaCl2, 0.5 MgCl2, 5.5 glucose, 0.1 NiCl2, and 5 HEPES, pH 7.4 with CsOH or TEAOH. The pipette solution was (in mM): 125 Cs acetate, 20 CsCl, 3MgCl2, 10 EGTA, and 5 HEPES, pH 7.4 adjusted with CsOH. Currents were recorded at room temperature using an A-M Systems model 2400 patch-clamp amplifier (Sequim, Wash., USA). Signals were low-pass filtered at 2 kHz and digitized at 5 kHz with Digidata 1440A interface and pCLAMP 10.0 software (Molecular Devices, Sunnyvale, Calif., USA). Cardiomyocytes were held at −40 mV, and Ba^2+ currents were recorded immediately after whole-cell patches were formed by gentle suctions. Current-voltage (I-V) relationships were elicited from a holding potential at −40 mV using 200 ms steps (5 seconds between steps) over a range from −60 to +60 mV in 10 mV increments. The current densities were calculated by dividing the current amplitudes (pA) by membrane capacitances (pF).

ERK and PKC = test: Western blot of pERK and pPKCα/β (downstream of VEGFR2) in cultured cardiomyocytes; conditions: inhibitor with peptide Lv
Protocol: as §1
(§2) Treated or control cells were washed and lysed in radioimmunoprecipitation assay (RIPA) buffer, and proteins were denatured by mixing with 2× Laemmli sample buffer for 5 minutes at 95° C. Samples were separated on 10% sodium dodecyl sulfate-polyacrylamide gel electrophoresis (SDS-PAGE) gels and transferred to nitrocellulose membranes. The primary antibodies used in this study were pan L-VGCCα1, ERK1/2, di-phosphorylated ERK1/2, actin, phosphorylated PKC α/βII subunit, phosphorylated tyrosine, VEGFR2, and phosphorylated VEGFR2 at tyr1054/1059. […]

VEGFR2 = test: Western blot of VEGFR2 autophosphorylation (pVEGFR2-tyr1054/1059) in cultured embryonic cardiomyocytes; conditions: DMH4 in presence of peptide Lv
Protocol: as §1, §2

For `COc1cccc(-c2cc(=O)c3ccccc3o2)c1N` [PD98059], the “peptide Lv augmentation of L-VGCC currents” value (L-VGCC; PD98059 50 μM) was “decreased the peptide Lv augmentation of L-VGCC currents”.
`COc1ccc2c(c[n+](C)c3c4cc5c(cc4ccc23)OCO5)c1OC` [chelerythrine] was tested, and the “peptide Lv augmentation of L-VGCC currents” value (L-VGCC; chelerythrine 2 μM) was “decreased the peptide Lv augmentation of L-VGCC currents”.
In the case of `CN=c1nc(-c2ccccc2)n(-c2ccccc2)s1` [SCH202676], the “inhibition of effects of peptide Lv on pERK and pPKCα/β” value (ERK and PKC) is reported as “did not inhibit the effects of peptide Lv on pERK and pPKCα/β”.
With DMH4 the “block of VEGFa augmentation of L-VGCCs” value (L-VGCC; DMH4 5 μM with VEGFa) was “blocked the augmentation of L-VGCCs by VEGFa”, the “L-VGCCs, inhibitor by itself” value (L-VGCC; DMH4 alone, without peptide Lv) was “did not affect the LVGCCs” and the “block of peptide Lv augmentation of L-VGCC currents” value (L-VGCC; DMH4 together with peptide Lv) was “able to block the augmentation effect of peptide Lv on L-VGCC currents”. For the same compound, the “inhibition of peptide Lv-enhanced VEGFR2 phosphorylation” value (VEGFR2) was “sensitive to DMH4 inhibition”.
